# According to article PMC6430017, “Structural and chemical insights into the covalent-allosteric inhibition of the protein kinase Akt” (Chemical Science, 2019):
# Target: KIT (Homo sapiens, UniProt P10721)
# Assay: SelectScreen Z'LYTE kinase profiling
# Assay type: biochemical
# Conditions: ATP at apparent KM
# Method: (§1) protein kinases at a compound concentration of 1 µM. Measurements were performed in duplicates
# (§2) and at the particular apparent ATP KM of each individual kinase employing the activity based Z’LYTE®
# (§3) kinase assay of the SelectScreen® Kinase Profiling Services (ThermoFisher Scientific).
# (§4) kinases at a compound concentration of 1 µM. Measurements were performed in duplicates and at
# (§5) the particular apparent ATP KM of each individual kinase employing the activity based Z’LYTE® kinase
# (§6) assay of the SelectScreen® Kinase Profiling Services (ThermoFisher Scientific).
row,Structure (SMILES),inhibition at 1 µM [%]
1,C=CC(=O)Nc1ccc2c(c1)n(C1CCN(Cc3ccc(-c4nc5cc[nH]c(=O)c5cc4-c4ccccc4)cc3)CC1)c(=O)n2C [24b],6
2,C=CC(=O)Nc1cccc(C(=O)NC2CCN(Cc3ccc(-c4nc5cc[nH]c(=O)c5cc4-c4ccccc4)cc3)CC2)c1 [30b],9
3,C=CC(=O)Nc1cc(NC(=O)NC2CCN(Cc3ccc(-c4nc5cc[nH]c(=O)c5cc4-c4ccccc4)cc3)CC2)ccc1Cl [compound 27],9

# Target: IGF1R (Homo sapiens, UniProt P08069)
# Assay: SelectScreen Z'LYTE kinase profiling
# Assay type: biochemical
# Conditions: ATP at apparent KM
row,Structure (SMILES),inhibition at 1 µM [%]
1,C=CC(=O)Nc1ccc2c(c1)n(C1CCN(Cc3ccc(-c4nc5cc[nH]c(=O)c5cc4-c4ccccc4)cc3)CC1)c(=O)n2C [24b],6
2,C=CC(=O)Nc1cccc(C(=O)NC2CCN(Cc3ccc(-c4nc5cc[nH]c(=O)c5cc4-c4ccccc4)cc3)CC2)c1 [30b],1
3,C=CC(=O)Nc1cc(NC(=O)NC2CCN(Cc3ccc(-c4nc5cc[nH]c(=O)c5cc4-c4ccccc4)cc3)CC2)ccc1Cl [compound 27],7

# Target: SYK (Homo sapiens, UniProt P43405)
# Assay: SelectScreen Z'LYTE kinase profiling
# Assay type: biochemical
# Conditions: ATP at apparent KM
# Method: as §1, §2, §3, §4, §5, §6
row,Structure (SMILES),inhibition at 1 µM [%]
1,C=CC(=O)Nc1ccc2c(c1)n(C1CCN(Cc3ccc(-c4nc5cc[nH]c(=O)c5cc4-c4ccccc4)cc3)CC1)c(=O)n2C [24b],4
2,C=CC(=O)Nc1cccc(C(=O)NC2CCN(Cc3ccc(-c4nc5cc[nH]c(=O)c5cc4-c4ccccc4)cc3)CC2)c1 [30b],15
3,C=CC(=O)Nc1cc(NC(=O)NC2CCN(Cc3ccc(-c4nc5cc[nH]c(=O)c5cc4-c4ccccc4)cc3)CC2)ccc1Cl [compound 27],5

# Target: CDC42 BPB (MRCKB) (Homo sapiens, UniProt Q9Y5S2)
# Assay: SelectScreen Z'LYTE kinase profiling
# Assay type: biochemical
# Conditions: ATP at apparent KM
# Method: as §1, §2, §3, §4, §5, §6
# Sequence of CDC42 BPB (MRCKB) (Q9Y5S2 whole entry): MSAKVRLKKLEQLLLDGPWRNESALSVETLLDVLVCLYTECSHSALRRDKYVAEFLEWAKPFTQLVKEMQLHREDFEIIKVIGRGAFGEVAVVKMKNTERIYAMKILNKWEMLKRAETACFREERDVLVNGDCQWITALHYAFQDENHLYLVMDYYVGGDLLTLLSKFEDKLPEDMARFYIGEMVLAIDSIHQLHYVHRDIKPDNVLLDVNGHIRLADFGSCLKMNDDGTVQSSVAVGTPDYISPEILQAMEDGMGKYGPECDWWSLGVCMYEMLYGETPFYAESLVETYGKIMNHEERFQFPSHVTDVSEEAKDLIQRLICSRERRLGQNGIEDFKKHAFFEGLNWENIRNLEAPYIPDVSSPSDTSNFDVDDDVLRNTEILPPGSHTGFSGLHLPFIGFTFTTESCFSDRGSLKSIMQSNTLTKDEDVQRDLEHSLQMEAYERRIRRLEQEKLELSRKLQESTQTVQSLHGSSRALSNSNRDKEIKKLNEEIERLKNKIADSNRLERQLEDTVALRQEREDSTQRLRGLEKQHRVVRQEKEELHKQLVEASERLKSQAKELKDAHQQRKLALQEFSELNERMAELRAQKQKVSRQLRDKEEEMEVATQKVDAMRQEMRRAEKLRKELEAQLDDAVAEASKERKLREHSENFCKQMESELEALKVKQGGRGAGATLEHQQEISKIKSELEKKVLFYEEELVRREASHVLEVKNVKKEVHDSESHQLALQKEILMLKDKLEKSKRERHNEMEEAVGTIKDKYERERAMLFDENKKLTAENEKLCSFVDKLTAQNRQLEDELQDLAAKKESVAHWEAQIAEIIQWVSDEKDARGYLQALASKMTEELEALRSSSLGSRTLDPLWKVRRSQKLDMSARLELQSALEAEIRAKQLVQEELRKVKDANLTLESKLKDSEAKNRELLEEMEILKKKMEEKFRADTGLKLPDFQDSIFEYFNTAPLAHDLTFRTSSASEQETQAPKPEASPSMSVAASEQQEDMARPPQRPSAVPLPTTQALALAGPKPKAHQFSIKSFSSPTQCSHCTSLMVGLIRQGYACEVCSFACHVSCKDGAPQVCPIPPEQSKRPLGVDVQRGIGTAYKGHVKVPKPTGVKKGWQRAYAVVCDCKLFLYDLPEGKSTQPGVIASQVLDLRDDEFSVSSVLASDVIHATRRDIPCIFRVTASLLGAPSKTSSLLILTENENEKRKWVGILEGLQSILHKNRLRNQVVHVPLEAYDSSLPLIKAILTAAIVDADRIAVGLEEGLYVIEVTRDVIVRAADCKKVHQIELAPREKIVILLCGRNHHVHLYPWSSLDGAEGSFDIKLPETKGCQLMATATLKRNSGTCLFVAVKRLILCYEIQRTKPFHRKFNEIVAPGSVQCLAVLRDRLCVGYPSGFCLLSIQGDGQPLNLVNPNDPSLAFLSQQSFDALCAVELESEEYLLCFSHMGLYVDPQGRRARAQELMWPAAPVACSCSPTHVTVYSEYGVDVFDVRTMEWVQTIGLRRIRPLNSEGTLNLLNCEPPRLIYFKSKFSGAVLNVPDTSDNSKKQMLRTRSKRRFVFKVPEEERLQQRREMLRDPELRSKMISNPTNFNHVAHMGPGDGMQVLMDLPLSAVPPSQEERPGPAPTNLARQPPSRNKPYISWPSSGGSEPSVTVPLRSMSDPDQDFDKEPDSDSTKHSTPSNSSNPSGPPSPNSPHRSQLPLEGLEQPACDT
row,Structure (SMILES),inhibition at 1 µM [%]
1,C=CC(=O)Nc1ccc2c(c1)n(C1CCN(Cc3ccc(-c4nc5cc[nH]c(=O)c5cc4-c4ccccc4)cc3)CC1)c(=O)n2C [24b],3
2,C=CC(=O)Nc1cccc(C(=O)NC2CCN(Cc3ccc(-c4nc5cc[nH]c(=O)c5cc4-c4ccccc4)cc3)CC2)c1 [30b],-27
3,C=CC(=O)Nc1cc(NC(=O)NC2CCN(Cc3ccc(-c4nc5cc[nH]c(=O)c5cc4-c4ccccc4)cc3)CC2)ccc1Cl [compound 27],12

# Target: T1, BRSK1 (SAD1) (Homo sapiens, UniProt Q8TDC3)
# T1 sequence (Q8TDC3 1-778): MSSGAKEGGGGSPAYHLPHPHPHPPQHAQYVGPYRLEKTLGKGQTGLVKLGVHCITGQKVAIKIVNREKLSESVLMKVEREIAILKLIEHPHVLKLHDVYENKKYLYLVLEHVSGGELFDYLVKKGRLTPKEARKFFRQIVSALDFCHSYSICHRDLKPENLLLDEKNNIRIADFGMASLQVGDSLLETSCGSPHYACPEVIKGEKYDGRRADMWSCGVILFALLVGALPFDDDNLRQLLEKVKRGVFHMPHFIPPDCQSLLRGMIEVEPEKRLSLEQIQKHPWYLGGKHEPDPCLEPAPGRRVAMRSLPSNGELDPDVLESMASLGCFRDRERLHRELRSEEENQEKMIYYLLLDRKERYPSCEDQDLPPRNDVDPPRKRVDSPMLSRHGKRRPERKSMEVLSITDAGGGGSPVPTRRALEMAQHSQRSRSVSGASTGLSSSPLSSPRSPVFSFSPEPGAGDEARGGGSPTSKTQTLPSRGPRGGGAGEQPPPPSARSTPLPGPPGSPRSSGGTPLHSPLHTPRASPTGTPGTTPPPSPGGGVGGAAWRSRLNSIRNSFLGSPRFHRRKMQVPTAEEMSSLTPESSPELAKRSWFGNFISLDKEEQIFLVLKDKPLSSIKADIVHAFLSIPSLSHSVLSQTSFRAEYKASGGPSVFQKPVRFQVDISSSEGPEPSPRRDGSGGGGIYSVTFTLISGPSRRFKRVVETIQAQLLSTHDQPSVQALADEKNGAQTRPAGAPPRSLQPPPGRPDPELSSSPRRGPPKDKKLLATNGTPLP
# Assay: SelectScreen Z'LYTE kinase profiling
# Assay type: biochemical
# Conditions: ATP at apparent KM
# Method: as §1, §2, §3, §4, §5, §6
row,Structure (SMILES),inhibition at 1 µM [%]
1,C=CC(=O)Nc1ccc2c(c1)n(C1CCN(Cc3ccc(-c4nc5cc[nH]c(=O)c5cc4-c4ccccc4)cc3)CC1)c(=O)n2C [24b],2
2,C=CC(=O)Nc1cccc(C(=O)NC2CCN(Cc3ccc(-c4nc5cc[nH]c(=O)c5cc4-c4ccccc4)cc3)CC2)c1 [30b],7
3,C=CC(=O)Nc1cc(NC(=O)NC2CCN(Cc3ccc(-c4nc5cc[nH]c(=O)c5cc4-c4ccccc4)cc3)CC2)ccc1Cl [compound 27],16

# Target: PRKACA (PKA) (Homo sapiens, UniProt P17612)
# Assay: SelectScreen Z'LYTE kinase profiling
# Assay type: biochemical
# Conditions: ATP at apparent KM
# Method: as §1, §2, §3, §4, §5, §6
row,Structure (SMILES),inhibition at 1 µM [%]
1,C=CC(=O)Nc1ccc2c(c1)n(C1CCN(Cc3ccc(-c4nc5cc[nH]c(=O)c5cc4-c4ccccc4)cc3)CC1)c(=O)n2C [24b],2
2,C=CC(=O)Nc1cccc(C(=O)NC2CCN(Cc3ccc(-c4nc5cc[nH]c(=O)c5cc4-c4ccccc4)cc3)CC2)c1 [30b],10
3,C=CC(=O)Nc1cc(NC(=O)NC2CCN(Cc3ccc(-c4nc5cc[nH]c(=O)c5cc4-c4ccccc4)cc3)CC2)ccc1Cl [compound 27],-4

# Target: T2, CAMK4 (CaMKIV) (Homo sapiens, UniProt Q16566)
# T2 sequence (Q16566 1-473): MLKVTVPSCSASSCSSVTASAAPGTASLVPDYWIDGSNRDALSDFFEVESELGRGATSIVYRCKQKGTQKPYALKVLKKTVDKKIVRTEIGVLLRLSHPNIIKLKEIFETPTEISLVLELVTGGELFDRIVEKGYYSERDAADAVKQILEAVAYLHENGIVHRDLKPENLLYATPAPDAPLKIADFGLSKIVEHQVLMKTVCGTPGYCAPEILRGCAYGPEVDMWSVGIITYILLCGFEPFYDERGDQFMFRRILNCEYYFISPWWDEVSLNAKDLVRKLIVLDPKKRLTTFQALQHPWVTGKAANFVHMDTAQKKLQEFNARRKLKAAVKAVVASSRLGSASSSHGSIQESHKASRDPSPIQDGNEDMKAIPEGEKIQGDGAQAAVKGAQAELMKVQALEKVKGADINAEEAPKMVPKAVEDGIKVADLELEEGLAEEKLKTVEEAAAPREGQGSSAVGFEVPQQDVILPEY
# Assay: SelectScreen Z'LYTE kinase profiling
# Assay type: biochemical
# Conditions: ATP at apparent KM
# Method: as §1, §2, §3, §4, §5, §6
row,Structure (SMILES),inhibition at 1 µM [%]
1,C=CC(=O)Nc1ccc2c(c1)n(C1CCN(Cc3ccc(-c4nc5cc[nH]c(=O)c5cc4-c4ccccc4)cc3)CC1)c(=O)n2C [24b],-1
2,C=CC(=O)Nc1cccc(C(=O)NC2CCN(Cc3ccc(-c4nc5cc[nH]c(=O)c5cc4-c4ccccc4)cc3)CC2)c1 [30b],10
3,C=CC(=O)Nc1cc(NC(=O)NC2CCN(Cc3ccc(-c4nc5cc[nH]c(=O)c5cc4-c4ccccc4)cc3)CC2)ccc1Cl [compound 27],8

# Target: PRKCG (PKC gamma) (Homo sapiens, UniProt P05129)
# Assay: SelectScreen Z'LYTE kinase profiling
# Assay type: biochemical
# Conditions: ATP at apparent KM
# Method: as §1, §2, §3, §4, §5, §6
row,Structure (SMILES),inhibition at 1 µM [%]
1,C=CC(=O)Nc1ccc2c(c1)n(C1CCN(Cc3ccc(-c4nc5cc[nH]c(=O)c5cc4-c4ccccc4)cc3)CC1)c(=O)n2C [24b],-3
2,C=CC(=O)Nc1cccc(C(=O)NC2CCN(Cc3ccc(-c4nc5cc[nH]c(=O)c5cc4-c4ccccc4)cc3)CC2)c1 [30b],0
3,C=CC(=O)Nc1cc(NC(=O)NC2CCN(Cc3ccc(-c4nc5cc[nH]c(=O)c5cc4-c4ccccc4)cc3)CC2)ccc1Cl [compound 27],-6

# Target: ALK (Homo sapiens, UniProt Q9UM73)
# Assay: SelectScreen Z'LYTE kinase profiling
# Assay type: biochemical
# Conditions: ATP at apparent KM
# Method: as §1, §2, §3, §4, §5, §6
# Sequence of ALK (Q9UM73 19-1620): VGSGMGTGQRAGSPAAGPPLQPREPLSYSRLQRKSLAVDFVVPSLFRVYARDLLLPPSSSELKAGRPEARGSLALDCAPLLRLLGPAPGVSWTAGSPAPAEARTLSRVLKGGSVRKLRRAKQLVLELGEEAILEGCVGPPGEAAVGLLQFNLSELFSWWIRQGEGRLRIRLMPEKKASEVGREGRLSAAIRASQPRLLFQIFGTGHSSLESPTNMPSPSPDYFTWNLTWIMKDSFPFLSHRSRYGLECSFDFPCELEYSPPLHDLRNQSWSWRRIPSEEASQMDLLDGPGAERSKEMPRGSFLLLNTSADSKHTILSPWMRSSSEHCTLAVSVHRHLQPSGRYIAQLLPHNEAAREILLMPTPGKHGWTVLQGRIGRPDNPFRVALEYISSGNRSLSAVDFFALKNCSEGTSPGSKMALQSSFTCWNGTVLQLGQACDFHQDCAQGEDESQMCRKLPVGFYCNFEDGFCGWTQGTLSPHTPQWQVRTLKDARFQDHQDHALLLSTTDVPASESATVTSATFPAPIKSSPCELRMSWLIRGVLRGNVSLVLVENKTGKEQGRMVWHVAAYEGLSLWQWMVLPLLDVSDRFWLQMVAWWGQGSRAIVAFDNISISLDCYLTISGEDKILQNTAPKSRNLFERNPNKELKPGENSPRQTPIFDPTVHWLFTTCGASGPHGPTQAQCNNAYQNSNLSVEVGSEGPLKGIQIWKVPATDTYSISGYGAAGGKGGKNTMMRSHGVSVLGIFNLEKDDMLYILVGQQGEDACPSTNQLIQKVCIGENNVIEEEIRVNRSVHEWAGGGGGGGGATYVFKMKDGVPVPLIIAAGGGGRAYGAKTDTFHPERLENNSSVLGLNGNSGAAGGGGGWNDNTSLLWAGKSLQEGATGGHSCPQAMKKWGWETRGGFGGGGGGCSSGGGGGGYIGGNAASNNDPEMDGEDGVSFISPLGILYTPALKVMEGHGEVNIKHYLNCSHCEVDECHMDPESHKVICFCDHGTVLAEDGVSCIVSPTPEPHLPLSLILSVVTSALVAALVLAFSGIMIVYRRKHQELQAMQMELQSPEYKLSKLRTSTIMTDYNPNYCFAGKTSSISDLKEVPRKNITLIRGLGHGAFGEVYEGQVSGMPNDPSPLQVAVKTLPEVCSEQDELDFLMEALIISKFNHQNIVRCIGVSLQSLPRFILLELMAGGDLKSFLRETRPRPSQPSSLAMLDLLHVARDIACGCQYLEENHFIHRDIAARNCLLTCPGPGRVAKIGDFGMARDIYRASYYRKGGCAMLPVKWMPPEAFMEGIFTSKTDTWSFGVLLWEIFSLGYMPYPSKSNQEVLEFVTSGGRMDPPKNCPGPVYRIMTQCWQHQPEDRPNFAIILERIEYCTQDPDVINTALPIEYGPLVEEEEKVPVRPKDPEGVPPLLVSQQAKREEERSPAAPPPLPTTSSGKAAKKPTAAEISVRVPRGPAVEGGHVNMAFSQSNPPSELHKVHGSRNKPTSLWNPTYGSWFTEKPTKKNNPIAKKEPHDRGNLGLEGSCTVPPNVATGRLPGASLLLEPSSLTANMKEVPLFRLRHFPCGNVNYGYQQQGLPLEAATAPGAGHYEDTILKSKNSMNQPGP
row,Structure (SMILES),inhibition at 1 µM [%]
1,C=CC(=O)Nc1ccc2c(c1)n(C1CCN(Cc3ccc(-c4nc5cc[nH]c(=O)c5cc4-c4ccccc4)cc3)CC1)c(=O)n2C [24b],-3
2,C=CC(=O)Nc1cccc(C(=O)NC2CCN(Cc3ccc(-c4nc5cc[nH]c(=O)c5cc4-c4ccccc4)cc3)CC2)c1 [30b],1
3,C=CC(=O)Nc1cc(NC(=O)NC2CCN(Cc3ccc(-c4nc5cc[nH]c(=O)c5cc4-c4ccccc4)cc3)CC2)ccc1Cl [compound 27],2

# Target: T3, PRKG2 (PKG2) (Homo sapiens, UniProt Q13237)
# T3 sequence (Q13237 1-762): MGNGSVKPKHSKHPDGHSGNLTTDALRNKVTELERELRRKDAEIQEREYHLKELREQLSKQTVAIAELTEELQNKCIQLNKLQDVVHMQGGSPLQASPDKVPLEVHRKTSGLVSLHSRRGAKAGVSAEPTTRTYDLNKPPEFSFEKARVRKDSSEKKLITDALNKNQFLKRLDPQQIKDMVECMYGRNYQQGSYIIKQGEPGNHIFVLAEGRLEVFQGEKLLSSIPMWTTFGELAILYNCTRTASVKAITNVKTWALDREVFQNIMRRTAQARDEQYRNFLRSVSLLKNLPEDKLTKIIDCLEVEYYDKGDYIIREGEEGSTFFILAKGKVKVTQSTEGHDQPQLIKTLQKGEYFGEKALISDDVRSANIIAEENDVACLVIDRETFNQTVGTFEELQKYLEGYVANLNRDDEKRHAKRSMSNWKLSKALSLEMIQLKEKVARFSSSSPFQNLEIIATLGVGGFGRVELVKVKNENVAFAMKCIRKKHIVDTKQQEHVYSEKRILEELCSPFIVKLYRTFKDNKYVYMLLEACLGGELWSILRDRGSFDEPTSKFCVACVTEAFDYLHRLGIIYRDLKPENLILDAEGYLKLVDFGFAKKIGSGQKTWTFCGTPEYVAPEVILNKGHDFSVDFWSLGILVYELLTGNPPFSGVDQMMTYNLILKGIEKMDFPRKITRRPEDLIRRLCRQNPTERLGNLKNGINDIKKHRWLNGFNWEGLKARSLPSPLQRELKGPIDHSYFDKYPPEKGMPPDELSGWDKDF
# Assay: SelectScreen Z'LYTE kinase profiling
# Assay type: biochemical
# Conditions: ATP at apparent KM
# Method: as §1, §2, §3, §4, §5, §6
row,Structure (SMILES),inhibition at 1 µM [%]
1,C=CC(=O)Nc1ccc2c(c1)n(C1CCN(Cc3ccc(-c4nc5cc[nH]c(=O)c5cc4-c4ccccc4)cc3)CC1)c(=O)n2C [24b],-4
2,C=CC(=O)Nc1cccc(C(=O)NC2CCN(Cc3ccc(-c4nc5cc[nH]c(=O)c5cc4-c4ccccc4)cc3)CC2)c1 [30b],5
3,C=CC(=O)Nc1cc(NC(=O)NC2CCN(Cc3ccc(-c4nc5cc[nH]c(=O)c5cc4-c4ccccc4)cc3)CC2)ccc1Cl [compound 27],-4

# Target: PTK2 (FAK) (Homo sapiens, UniProt Q05397)
# Assay: SelectScreen Z'LYTE kinase profiling
# Assay type: biochemical
# Conditions: ATP at apparent KM
# Method: as §1, §2, §3, §4, §5, §6
# Sequence of PTK2 (FAK) (Q05397 whole entry): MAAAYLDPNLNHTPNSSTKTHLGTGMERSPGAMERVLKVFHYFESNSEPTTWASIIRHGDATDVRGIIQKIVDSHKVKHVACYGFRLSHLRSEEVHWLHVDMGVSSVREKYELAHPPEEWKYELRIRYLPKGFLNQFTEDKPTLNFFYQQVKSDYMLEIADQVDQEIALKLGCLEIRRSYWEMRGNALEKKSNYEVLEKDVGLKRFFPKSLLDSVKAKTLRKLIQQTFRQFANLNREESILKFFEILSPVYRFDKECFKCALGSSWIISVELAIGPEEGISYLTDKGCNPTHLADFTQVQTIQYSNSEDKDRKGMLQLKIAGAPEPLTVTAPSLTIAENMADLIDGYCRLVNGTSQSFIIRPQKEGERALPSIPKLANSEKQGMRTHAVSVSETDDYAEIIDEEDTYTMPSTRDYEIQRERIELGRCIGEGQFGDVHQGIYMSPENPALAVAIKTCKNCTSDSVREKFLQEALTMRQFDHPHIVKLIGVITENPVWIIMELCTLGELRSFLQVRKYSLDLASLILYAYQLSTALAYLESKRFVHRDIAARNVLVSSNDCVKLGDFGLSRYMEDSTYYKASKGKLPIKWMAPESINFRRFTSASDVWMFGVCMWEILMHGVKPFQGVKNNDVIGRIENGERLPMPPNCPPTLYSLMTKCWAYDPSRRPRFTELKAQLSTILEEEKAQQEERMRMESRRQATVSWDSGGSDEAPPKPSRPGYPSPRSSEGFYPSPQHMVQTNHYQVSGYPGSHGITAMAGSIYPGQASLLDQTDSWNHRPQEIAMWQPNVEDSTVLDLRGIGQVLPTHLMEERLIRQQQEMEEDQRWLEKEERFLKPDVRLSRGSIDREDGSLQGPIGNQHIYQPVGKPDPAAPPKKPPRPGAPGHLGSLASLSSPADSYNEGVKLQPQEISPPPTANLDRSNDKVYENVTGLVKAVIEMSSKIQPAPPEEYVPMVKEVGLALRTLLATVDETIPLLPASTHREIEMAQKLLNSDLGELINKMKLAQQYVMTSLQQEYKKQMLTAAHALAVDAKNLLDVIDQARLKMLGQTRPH
row,Structure (SMILES),inhibition at 1 µM [%]
1,C=CC(=O)Nc1ccc2c(c1)n(C1CCN(Cc3ccc(-c4nc5cc[nH]c(=O)c5cc4-c4ccccc4)cc3)CC1)c(=O)n2C [24b],-20
2,C=CC(=O)Nc1cccc(C(=O)NC2CCN(Cc3ccc(-c4nc5cc[nH]c(=O)c5cc4-c4ccccc4)cc3)CC2)c1 [30b],-4
3,C=CC(=O)Nc1cc(NC(=O)NC2CCN(Cc3ccc(-c4nc5cc[nH]c(=O)c5cc4-c4ccccc4)cc3)CC2)ccc1Cl [compound 27],-1

# Target: PIM1 (Homo sapiens, UniProt P11309)
# Assay: SelectScreen Z'LYTE kinase profiling
# Assay type: biochemical
# Conditions: ATP at apparent KM
# Method: as §1, §2, §3, §4, §5, §6
# Sequence of PIM1 (P11309 whole entry): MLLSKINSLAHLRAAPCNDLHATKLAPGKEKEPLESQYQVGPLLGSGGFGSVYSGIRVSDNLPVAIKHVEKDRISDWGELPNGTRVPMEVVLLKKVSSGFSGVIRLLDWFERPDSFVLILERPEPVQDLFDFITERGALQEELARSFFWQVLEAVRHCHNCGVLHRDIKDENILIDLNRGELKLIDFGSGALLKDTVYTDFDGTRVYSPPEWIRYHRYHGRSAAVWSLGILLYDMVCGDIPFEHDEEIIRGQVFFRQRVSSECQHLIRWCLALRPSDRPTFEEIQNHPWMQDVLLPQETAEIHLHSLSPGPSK
row,Structure (SMILES),inhibition at 1 µM [%]
1,C=CC(=O)Nc1ccc2c(c1)n(C1CCN(Cc3ccc(-c4nc5cc[nH]c(=O)c5cc4-c4ccccc4)cc3)CC1)c(=O)n2C [24b],-21
2,C=CC(=O)Nc1cccc(C(=O)NC2CCN(Cc3ccc(-c4nc5cc[nH]c(=O)c5cc4-c4ccccc4)cc3)CC2)c1 [30b],-15
3,C=CC(=O)Nc1cc(NC(=O)NC2CCN(Cc3ccc(-c4nc5cc[nH]c(=O)c5cc4-c4ccccc4)cc3)CC2)ccc1Cl [compound 27],-18
